Results: US6831199B1, “Pyrimidine compounds and derivatives thereof” (G. D. Searle & Co., priority 1995, dated 2004)
Counter-ions that a name gives are not always drawn. Like-named read-outs stand apart in the source and are kept apart here.

Key:
[1] = molecular target: T1, Human vitronectin receptor (αvβ3) (Homo sapiens, UniProt P05106+P06756); test: Vitronectin adhesion assay (solid phase receptor assay, competition with biotinylated vitronectin); format: binding; conditions: read-out: AvB3 IC50
T1 construct: Human vitronectin receptor (αvβ3) was purified from human placenta; from tissue; host or cells: human placenta
How it was run: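 Purified human αvβ3 coated overnight at 4 °C in TBS with 1.0 mM Ca++, Mg++, Mn++, pH 7.4; compounds (top final 1.0×10^−4 M) competed with 1 nM biotinylated vitronectin for 2 h at room temperature. Bound ligand detected by HRP anti-biotin/OPD at A450; values normalized to no-competitor controls, four-parameter curve fit.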

[2] = molecular target: T2, Human fibrinogen receptor (αIIbβ3) (Homo sapiens, UniProt P05106+P08514); test: Purified IIb/IIIa receptor assay (solid phase receptor assay, competition with biotinylated vitronectin); format: binding; conditions: read-out: IIb/IIIa IC50
T2 construct: Human fibrinogen receptor (αIIbβ3) was purified from outdated platelets; from tissue; host or cells: outdated human platelets
How it was run: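 Purified platelet αIIbβ3 coated overnight at 4 °C in TBS with 1.0 mM Ca/Mg/Mn, pH 7.4, then BSA-blocked. Compounds (top 1.0×10^−4 M) competed with 1 nM biotinylated vitronectin for 2 h at room temperature. Bound label detected by HRP anti-biotin, A450; values normalized to no-competitor controls, four-parameter fit.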

platelet rich plasma = test: Human platelet rich plasma assay (ADP induced platelet aggregation); format: cell-based; conditions: ADP induced platelet aggregation in human platelet rich plasma, read-out: Human PRP
Experimental: Human Platelet Rich Plasma Assays
Healthy aspirin free donors were selected from a pool of volunteers. The harvesting of platelet rich plasma and subsequent ADP induced platelet aggregation assays were performed as described in Zucker, M. B., “Platelet Aggregation Measured by the Photometric Method”, Methods in Enzymology 169(1989):117-133. Standard venipuncture techniques using a butterfly allowed the withdrawal of 45 mL of whole blood into a 60 mL syringe containing 5 mL of 3.8% trisodium citrate. Following thorough mixing in the syringe, the anti-coagulated whole blood was transferred to a 50 mL conical polyethylene tube. The blood was centrifuged at room temperature for 12 minutes at 200×g to sediment non-platelet cells. Platelet rich plasma was removed to a polyethylene tube and stored at room temperature until used. Platelet poor plasma was obtained from a second centrifugation of the remaining blood at 2000×g for 15 minutes. Platelet counts are typically 300,000 to 500,000 per microliter. Platelet rich plasma (0.45 mL) was aliquoted into siliconized cuvettes and stirred (1100 rpm) at 37° C. for 1 minute prior to adding 50 uL of pre-diluted test compound. After 1 minute of mixing, aggregation was initiated by the addition of 50 uL of 200 uM ADP. Aggregation was recorded for 3 minutes in a Payton dual channel aggregometer (Payton Scientific, Buffalo, N.Y.). The percent inhibition of maximal response (saline control) for a series of test compound dilutions was used to determine a dose response curve.

Compound	IC50 [1] [nM]	IC50 [2] [nM]	IC50 (platelet rich plasma; Homo sapiens, Platelet) [nM]	IC50 (platelet rich plasma) [nM]
COC(=O)c1ccccc1SCCC(CC(=O)O)NC(=O)CNC(=O)c1cccc(NC(=N)N)c1 (racemic) [Example 62, (±)methyl 2-[[3-[2-[[[3-[(aminoiminomethyl)amino]phenyl]carbonyl]amino]acetyl]amino]-4-carboxybutyl]thio]benzoate, trifluoroacetate salt]	1.42	28.4	> 200000	
N=C(N)Nc1cccc(C(=O)NCC(=O)NC(CC(=O)O)c2cc(Cl)cc(Br)c2O)c1 (racemic) [Example 233, (±)β-[[2-[[[3-[(aminoiminomethyl)amino]phenyl]carbonyl]amino]acetyl]amino]-3-bromo-5-chloro-2-hydroxybezenepropanoic acid, trifluoroacetate salt, monohydrate]	3.31	647		> 200000
N=C(N)Nc1cccc(C(=O)NCC(=O)NC(CC(=O)O)c2cc([N+](=O)[O-])ccc2O)c1 (racemic) [Example 226, (±)β-[[2-[[[3-[(aminoiminomethyl)amino]phenyl]carbonyl]amino]acetyl]amino]-2-hydroxy-5-nitrobenzenepropanoic acid, trifluoroacetate salt]	7.07	2910	> 200000	
N=C(N)Nc1cccc(C(=O)NCC(=O)N[C@H](CSc2ccccc2)CC(=O)O)c1 [Example 68, 3S-[[2-[[[3-[(aminoiminomethyl)amino]phenyl]carbonyl]amino]acetyl]amino]-4-(phenylthio)butanoic acid, trifluoroacetate salt]	5.48	125	> 200000	
N=C(N)Nc1cc(C(=O)NCC(=O)NC(CC(=O)O)c2cc(Cl)cc(Cl)c2)cc(C(F)(F)F)c1 (racemic) [Example 177, (±)β-[[2-[[[3-[(aminoiminomethyl)amino]-5-(trifluoromethyl)phenyl]carbonyl]amino]acetyl]amino]-3,5-dichlorobenzenepropanoic acid, trifluoroacetate salt]	0.58	137	> 20000	

Now from value to compound, other results behind:

IC50 [1] [nM]	IC50 [2] [nM]	IC50 (platelet rich plasma; Homo sapiens, Platelet) [nM]	Compound	IC50 (platelet rich plasma) [nM]
5.74	631	> 200000	N=C(N)Nc1cc(C(=O)NCC(=O)NC(CC(=O)O)c2ccccc2)ccc1Cl (stereo not drawn) [Example 150, β-[[2-[[[3-[(aminoiminomethyl)amino]-4-chlorophenyl)carbonyl]amino]acetyl]amino]benzenepropanoic acid]	
14.2	809	> 200000	N=C(Nc1cccc(C(=O)NCC(=O)NC(CC(=O)O)c2cccnc2)c1)c1ccccc1 (racemic) [Example 26, (±)β-[[2-[[[3-[(iminophenylmethyl]amino]phenyl]carbonyl]amino]acetyl]amino]pyridine-3-propanoic acid, bis(trifluoroacetate)salt]	
2.56	209	> 20000	Cc1cc(C)cc(C(CC(=O)O)NC(=O)CNC(=O)c2cccc(NC(=N)N)c2)c1 (racemic) [Example 193, (±)β-[[2-[[[3-[(aminoiminomethyl)amino]phenyl]carbonyl]amino]acetyl]amino]-3,5-dimethylbenzenepropanoic acid, trifluoroacetate salt]	
0.88	13.9	> 20000	N=C(N)Nc1cccc(C(=O)NCC(=O)NC(CC(=O)O)c2ccc(-c3ccccc3)cc2)c1 (racemic) [Example 37, (±)β-[[2-[[[3-[(aminoiminomethyl)amino]phenyl]carbonyl]amino]acetyl]amino][1,1′-biphenyl]-4-propanoic acid, trifluoroacetate salt]	
25.2	4870	> 200000	O=C(O)CC(NC(=O)CNC(=O)c1cccc(NC(=O)Nc2ccccc2)c1)c1cccnc1 (stereo not drawn) [Example 108, β-[[2-[[[3-[[(phenylamino]carbonyl]amino]phenyl]carbonyl]amino]acetyl]amino]pyridine-3-propanoic acid, trifluoroacetate salt]	
